Results: ChEMBL document CHEMBL4725456, “Therapeutic Potential of Autotaxin Inhibitors in Treatment of Interstitial Lung Diseases” (ACS Med Chem Lett, 2020)

Assay: In vivo inhibition of ATX in rat assessed as reduction in plasma LPA levels at 5 mg/kg, po measured after 8 hrs by LC-MS analysis relative to control
Format: functional

`CC(=O)N1CCN(c2ccc(CNc3ccc(OCc4cccc(C#N)c4)nn3)cc2)CC1` showed an inhibition in vivo at 5 mg/kg of 95.7%.

Work on `COc1ccc(COc2ccc(NCc3ccc(N4CCN(C(C)=O)CC4)cc3)nn2)cn1` yielded an inhibition in vivo at 5 mg/kg of 98.3%.
